Source: patent US8470812B2, “Substituted benzo-pyrimido-tetrazolo-diazepine compounds” (ArQule, Inc., priority 2009, dated 2013)

Columns and labels:
MDA-MB-231 cancer cells = test: MTS assay, cell growth inhibition; type: cell-based; settings: MDA-MB-231 cells, 72 h incubation; test concentration not given
Method: (§1) Cells were maintained at 37° C., 5% CO2 in DMEM media supplemented with 1% fetal bovine serum, penicillin/streptomycin and fungizone (Invitrogen). Cells were seeded into 96-well tissue culture plates at 3000 per well and cultured at 37° C. for 18 hours. Test compounds were dissolved and diluted to 300× in DMSO then diluted 1:40 in DMEM. Cells were incubated with test compounds for 72 hours followed by incubation with tetrazolium compound (3-(4,5-dimethylthiazol-2-yl)-5-(3-carboxymethoxyphenyl)-2-(4-sulfophenyl)-2H-tetrazolium, inner salt; MTS) and the electron coupling reagent, phenazine methosulfate (PMS) for 4 hours. […] The ability of compounds to inhibit cell growth in this assay is correlated with the reduction of dehydrogenase enzyme activity found in metabolically active cells. The measurement of the absorbance of the formazan was assessed using a Victor (Perkin Elmer) microplate reader at 492 nm. The calculated IC50 value is the concentration of the test compound that causes a 50% decrease in the absorbance. Selected compounds have been tested in DLD-1 and MDA-MB-231 cancer cells.

DLD-1 cancer cells = test: MTS assay, cell growth inhibition; type: cell-based; settings: DLD-1 cells, 72 h incubation; test concentration not given
Method: as §1

| SMILES | MDA-MB-231, MTS, 72 h (% Inhibition) (MDA-MB-231 cancer cells) [%] | DLD-1, MTS, 72 h (% Inhibition) (DLD-1 cancer cells) [%] |
| --- | --- | --- |
| CC(C)(C)OC(=O)N1CCN(c2ncc3c(n2)N(Cc2ccc(F)c(F)c2)c2ccccc2-n2nnnc2-3)CC1 [Compound 22, tert-butyl 4-[9-(3,4-difluorobenzyl)-9H-pyrimido[5,4-c]tetrazolo[1,5-a][1,5]benzodiazepin-11-yl]piperazine-1-carboxylate] | 93 | 95 |
| CCN1CCN(c2ncc3c(n2)Nc2ccccc2-n2nnnc2-3)CC1 [Compound 43, 11-(4-ethylpiperazin-1-yl)-9H-pyrimido[5,4-c]tetrazolo[1,5-a][1,5]benzodiazepine] | 90 | 32 |
| COc1ccc(CNc2ncc3c(n2)Nc2ccccc2-n2nnnc2-3)cc1OC [Compound 57, N-(3,4-dimethoxybenzyl)-9H-pyrimido[5,4-c]tetrazolo[1,5-a][1,5]benzodiazepin-11-amine] | 39 | 97 |
| Clc1ccccc1CNc1ncc2c(n1)Nc1ccccc1-n1nnnc1-2 [Compound 48, N-(2-chlorobenzyl)-9H-pyrimido[5,4-c]tetrazolo[1,5-a][1,5]benzodiazepin-11-amine] | 51 | 97 |
| CC1CCCN1c1ncc2c(n1)Nc1ccccc1-n1nnnc1-2 (centres unmarked) [Compound 68, 11-(2-methylpyrrolidin-1-yl)-9H-pyrimido[5,4-c]tetrazolo[1,5-a][1,5]benzodiazepine] | 75 | 97 |
| c1ccc2c(c1)Nc1nc(NC3CCC3)ncc1-c1nnnn1-2 [Compound 85, N-cyclobutyl-9H-pyrimido[5,4-c]tetrazolo[1,5-a][1,5]benzodiazepin-11-amine] | 99 | 97 |
| CC(C)(C)OC(=O)NC1CCCN(c2ncc3c(n2)N(Cc2ccc(F)c(F)c2)c2ccccc2-n2nnnc2-3)C1 (centres unmarked) [Compound 21, tert-butyl {1-[9-(3,4-difluorobenzyl)-9H-pyrimido[5,4-c]tetrazolo[1,5-a][1,5]benzodiazepin-11-yl]piperidin-3-yl}carbamate] | 97 | 97 |
| COc1ccc(OC)c(CNc2ncc3c(n2)Nc2ccccc2-n2nnnc2-3)c1 [Compound 103, N-(2,5-dimethoxybenzyl)-9H-pyrimido[5,4-c]tetrazolo[1,5-a][1,5]benzodiazepin-11-amine] | 97 | 97 |
| Fc1ccc(CN2c3ccccc3-n3nnnc3-c3cnc(NCc4ccncc4)nc32)cc1F [Compound 20, 9-(3,4-difluorobenzyl)-N-(pyridin-4-ylmethyl)-9H-pyrimido[5,4-c]tetrazolo[1,5-a][1,5]benzodiazepin-11-amine] | 102 | 102 |
| COc1cc(CNc2ncc3c(n2)Nc2ccccc2-n2nnnc2-3)cc(OC)c1OC [Compound 72, N-(3,4,5-trimethoxybenzyl)-9H-pyrimido[5,4-c]tetrazolo[1,5-a][1,5]benzodiazepin-11-amine] | 78 | 97 |
| CCCNc1ncc2c(n1)Nc1ccccc1-n1nnnc1-2 [Compound 41, N-propyl-9H-pyrimido[5,4-c]tetrazolo[1,5-a][1,5]benzodiazepin-11-amine] | 98 | 97 |
| CC(Nc1ncc2c(n1)Nc1ccccc1-n1nnnc1-2)c1ccc(Cl)cc1 (centres unmarked) [Compound 52, N-[1-(4-chlorophenyl)ethyl]-9H-pyrimido[5,4-c]tetrazolo[1,5-a][1,5]benzodiazepin-11-amine] | 98 | 97 |
| CC(Nc1ncc2c(n1)Nc1ccccc1-n1nnnc1-2)c1ccc(F)cc1 (centres unmarked) [Compound 33, N-[1-(4-fluorophenyl)ethyl]-9H-pyrimido[5,4-c]tetrazolo[1,5-a][1,5]benzodiazepin-11-amine] | 42 | 82 |
